The target of assay [1] is T1, GPR55A (Homo sapiens, UniProt Q9Y2T6).
T1 construct: expressed in transfected cells; host or cells: HEK293s (transient, pIRESneo2 vector), membranes
The assay is described as follows: Radioligand binding, membranes of GPR55A-transfected HEK293S cells. The note with it: for specific binding of radioligand: 1.6 nM radioligand. The procedure: (§1) To test whether GPR55 and/or GPR55Δ encoded a receptor that had the potential to perform as a cannabinoid receptor we transiently transfected cDNAs encoding FLAG-tagged forms of the receptors into HEK293S cells using lipofectamine. The cells were harvested 48 hours later and membranes prepared.
(§2) Membrane preparations were prepared by re-suspending receptor expressing cells in ice cold TE buffer (10 mM Tris-HCL 0.1 mM EDTA pH7.5) and leaving on ice for 5 minutes before pelleting the insoluble material by centrifugation at 1000 g. This process was repeated twice before re-suspending the pellet in an appropriate volume of TE and storing at −80° C.
(§3) Test compounds were added followed by 1.6 nM radioligand (3H—SR-141716A, ^3H-CP55940 or ^3H-WIN-55, 212-2) to an assay mixture containing membranes (10 μg protein) in 5.0 mM Tris, 5.0 mM MgCl2×6H2O (pH 7.4) supplemented with 0.05% BSA. The reaction was allowed to proceed at 30° C. for 90 min and then terminated by rapid filtration using GF/B filters (pre-soaked in 0.05% PEI) and washed with 50 mM Tris (pH 7.4), MgCl2×6H2O. Filters were then covered with scintillant and counted for the amount of radioligand retained. Non-specific binding was determined in the presence of 200 nM SR-141716A, CP55940 or WIN-55, 212-2.

The nature of assay [2]: Radioligand binding, membranes of vector-transfected cells (negative control). As to conditions: vector-transfected cell membranes. The procedure:
as §3

Assay [3] deals with T2, GPR55 (Homo sapiens, UniProt Q9Y2T6).
T2 construct: FLAG; expressed in transfected cells; host or cells: HEK293S (transient), membranes
The assay is described as follows: Radioligand binding, membranes of GPR55-transfected HEK293S cells. As to conditions: for specific binding of radioligand: 1.6 nM radioligand. The procedure:
as §1, §2, §3

Assay [4] deals with T1, GPR55A. The assay can be described thus: GTPγS binding assay on membranes of GPR55A-transfected HEK293s cells. It is filed as biochemical. As to conditions: for EC50: NA = not active; for activation of GPR55A (GTPγS): concentration response. The procedure: Membranes with or without 20 μM ligand were assayed for their stimulatory or inhibitory activity on GTPγS binding. As a negative control, cell membranes were prepared from empty vector-transfected cells, and as a positive control, cell membranes were prepared from CB1 transfected cells.
Receptor activity was determined using a GTPγS binding assay as follows: 10 μg of membranes diluted in 200 μl of 100 mM NaCl, 5 mM MgCl2, 1 mM EDTA, 50 mM HEPES (pH 7.4), 1 mM DTT, 0.1% BSA and 100 μM GDP. To this was added the required concentration of test compound and […] ^35S-GTPγS in the presence or absence of an EC80 concentration of agonist (HU210). […] Samples were then transferred on to GF/B filters using a cell harvester and washed with wash buffer (50 mM Tris (pH 7.4), 5 mM MgCl2, 50 mM NaCl). Filters were then covered with scintilant and counted for the amount of ^35S-GTPγS retained by the filter. To determine the level of non-specific binding control reactions were performed in the presence of 10 μM GTPγS.
Functional activity of ligands either in the presence or absence of agonists was determined as follows: Non-specific binding was subtracted from all values determined. The effect of compounds at various concentrations was plotted according to the equation y=A+((B−A)/1+((C/x)?ˆD))) and EC50 or IC50 estimated. Results
To further define the agonist activities of cannabinoid ligands EC50 determinations were made. […] Refer to FIGS. 5A-5D for the results. […] Table 1. Activity of ligands at GPR55A (Antagonist data were generated in the presence of an EC80 concentration of HU210.)
In general terms: GTPγS is a poorly hydrolysed GTP analogue; its binding reports G protein activation.

The mark [5] stands for this setting: GTPγS binding, GPR55A membranes.

Molecules are shown by their SMILES.

T1 sequence (Q9Y2T6 whole entry): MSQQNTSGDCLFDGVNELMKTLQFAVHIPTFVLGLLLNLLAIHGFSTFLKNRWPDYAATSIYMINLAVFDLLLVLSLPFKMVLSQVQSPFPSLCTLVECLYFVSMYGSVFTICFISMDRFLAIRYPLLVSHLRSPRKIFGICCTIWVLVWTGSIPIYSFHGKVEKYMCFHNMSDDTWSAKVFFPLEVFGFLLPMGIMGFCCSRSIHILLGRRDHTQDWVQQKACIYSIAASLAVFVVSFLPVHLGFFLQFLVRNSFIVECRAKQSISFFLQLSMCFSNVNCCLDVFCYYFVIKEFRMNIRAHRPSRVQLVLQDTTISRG
T2 sequence (Q9Y2T6 whole entry L132S/R133G/S134P/R136G/K137R/I138S/F139L/I141S/C142A): as the sequence (Q9Y2T6 whole entry) above, with L132S, R133G, S134P, R136G, K137R, I138S, F139L, I141S, C142A counted along it

Take `Cc1c(C(=O)NN2CCCCC2)nn(-c2ccc(Cl)cc2Cl)c1-c1ccc(Cl)cc1` [SR141716]: the “displacement of [^3H]-SR141716 (competition-binding curve)” value in assay [1] and in assay [3] was “nanomolar affinity” in each case. Moreover, in assay [2], the “specific binding, [^3H]-SR141716 competition” value is recorded as “no specific binding”.

One may read the EC50 as the midpoint of the concentration-response curve. Read a low EC50 as a more potent agent. In turn, `CCCCC/C=C\C/C=C\C/C=C\C/C=C\CCCCOC(CO)CO` [Noladin Ether] gave an EC50 in assay [4] (setting [5]) of 11.5 ± 0.5 nM. Further, the “activation of GPR55A (GTPγS)” value in assay [4] is “concentration-dependent activation”.

For the compound `CCCCCCC(C)(C)c1ccc([C@@H]2C[C@H](O)CC[C@H]2CCCO)c(O)c1` [CP55940], the “concentration dependent activity after pertussis toxin or cholera toxin treatment” value in assay [4] (GPR55a in HEK293s membranes, treated with either toxin vs untreated) is “remains unaltered”. The compound further registered an EC50 in assay [4] (setting [5]) of 7.1 ± 1.3 nM.

The compound `CCCCC/C=C\C/C=C\C/C=C\C/C=C\CCCC(=O)OC(CO)CO` [2-AG, 2-aracodonylglycerol] showed an EC50 in assay [4] (setting [5]) of 3.5 ± 2.4 nM. For the same compound, the “activation of GPR55A (GTPγS)” value in assay [4] was “concentration-dependent activation”.

`Cc1c(C(=O)NN2CCCCC2)nn(-c2ccc(Cl)cc2Cl)c1-c1ccc(Cl)cc1` [[^3H]-SR141716]: the “specific binding of radioligand” value in assay [1] and in assay [3] was “significant binding” each time.

In assay [4] (setting [5]), `CCCCC/C=C\C/C=C\C/C=C\C/C=C\CCCC(=O)OCCN` [Virodhamine] showed an EC50 of 10.4 ± 1.4 nM.

`CCCCCCC(C)(C)c1cc(O)c2c(c1)OC(C)(C)[C@@H]1CC=C(CO)C[C@@H]21` [Hu210] gave an EC50 in assay [4] (setting [5]) of 33 ± 12 nM.

Broadly, the IC50 is the point on the concentration scale where inhibition reaches its midpoint. In the case of `C=C(C)[C@@H]1CCC(C)=C[C@H]1c1c(O)cc(CCCCC)cc1O` [Cannabidiol], the IC50 in assay [4] (GTPγS binding, GPR55A membranes, antagonist data in the presence of an EC80 concentration of HU210, read-out: IC50 measurement) was 354 ± 63 nM.

`CCCn1c(C)c(C(=O)c2cccc3ccccc23)c2ccccc21` [JWH-015] had an EC50 in assay [4] (setting [5]) of 4.75 ± 0.25 nM.

`CCCCCc1cc(O)c2c(c1)OC(C)(C)[C@@H]1CCC(C)=C[C@@H]21` [Δ9-THC, Δ9-tetrahydrocannbinol] registered an EC50 in assay [4] (setting [5]) of 8.9 ± 1.1 nM. In assay [4], the “activation of GPR55A (GTPγS)” value is recorded as “concentration-dependent activation”.

In assay [4] (setting [5]), `C=C(C)[C@@H]1CCC(C)=C[C@H]1c1c(O)cc(O)cc1CCCCC` [Abnormal cannabidiol] displayed an EC50 of 2780 ± 98 nM.

Consider `Cc1c(C(=O)c2cccc3ccccc23)c2cccc3c2n1C(CN1CCOCC1)CO3` (stereo not drawn) [[^3H]-WIN55-212], for which the “specific binding of radioligand” value in assay [1] and in assay [3] was “little or no binding” in each case.

As for `CCCCCCCC/C=C\CCCCCCCC(=O)NCCO` [Oleylethanolamide], in assay [4] (setting [5]), the EC50 was determined as 424 ± 203 nM.

Consider `CCCCC/C=C\C/C=C\C/C=C\C/C=C\CCCC(=O)NCCO` [Anandamide], for which the midpoint of the response in assay [4] (setting [5]), the EC50, lay at 18.4 ± 4.1 nM. The “activation of GPR55A (GTPγS)” value in assay [4] is listed as “concentration-dependent activation”.

`CCCCCCCCCCCCCCCC(=O)NCCO` [Palmitoylethanolamide] yielded an EC50 in assay [4] (setting [5]) of 3.2 ± 1.3 nM. Besides, the “activation of GPR55A (GTPγS)” value in assay [4] is “concentration-dependent activation”.

`CCCCCCC(C)(C)c1ccc([C@@H]2C[C@H](O)CC[C@H]2CCCO)c(O)c1` [[^3H]-CP55940]: the “specific binding of radioligand” value in assay [1] and in assay [3] was “significant binding” throughout.

The record behind these values is patent US20060194260A1, “Screening assays for cannabinoid-ligand-type modulators of gpr55” (priority 2003, published 2006).
